Among the test systems are KM12 colon; MDA-MB-435; NCI-H23 lung; NCI-H460 lung; SF-295 CNS; SK-MEL-5 melanoma; SNB-19 CNS; TK-10 renal; LOX IMVI melanoma; NCI-H226 lung.
Assay in all cases: NCI tumour cell line growth inhibition, 48 h

Molecules are shown by their SMILES.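 These data come from cells grown in 96-well plates and exposed to compound for 48 hours at five concentrations. TGI is the concentration that stops growth completely.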

In the case of `N#CC(Cc1ccccc1)N(CCC1=CCCCC1)Cc1ccccc1` (stereo not drawn), the TGI in the assay on KM12 colon is above 100 µM; with MDA-MB-435, 91.1 µM; in the assay on NCI-H23 lung, above 100 µM; in the assay on NCI-H460 lung, above 100 µM; in the assay on SF-295 CNS, above 100 µM; with SK-MEL-5 melanoma, 51.9 µM. Also, the TGI in the assay with SNB-19 CNS and with TK-10 renal was above 100 µM each time.

In the case of `O=c1[nH]nc(Cc2c[nH]c3ccccc23)o1`, the TGI with KM12 colon, in the assay with LOX IMVI melanoma, with MDA-MB-435, in the assay with NCI-H226 lung, with NCI-H23 lung and in the assay on SF-295 CNS was above 100 µM throughout. Also, the TGI in the assay on SK-MEL-5 melanoma, with SNB-19 CNS and in the assay with TK-10 renal was above 100 µM in each case.

In the case of `COC(=O)c1ccc(N=NN(C)COc2ccc(Br)cc2)cc1`, the TGI with KM12 colon, with LOX IMVI melanoma, with NCI-H226 lung, in the assay with NCI-H23 lung, with NCI-H460 lung and in the assay with SF-295 CNS was above 100 µM in each case. For the same molecule, the TGI with SK-MEL-5 melanoma and with SNB-19 CNS was above 100 µM in each case.

For the molecule `Cc1cc(/C=C/c2cc[n+](C)c3ccccc23)c(O)c2ncccc12`, the TGI was found to be 18.6 µM with KM12 colon; 12.3 µM in the assay on LOX IMVI melanoma; 7.14 µM in the assay on NCI-H226 lung; 4.86 µM in the assay on NCI-H23 lung; 16.7 µM with NCI-H460 lung; 15.5 µM in the assay with SF-295 CNS. Moreover, the TGI with SK-MEL-5 melanoma was determined as 4.98 µM; in the assay with SNB-19 CNS, 20.8 µM; in the assay with TK-10 renal, 17.5 µM.

For `C=CCN(C(=O)OC(C)(C)C)[C@H](C)C(=O)N[C@@H](C)C(=O)OC`, the TGI in the assay with KM12 colon, with LOX IMVI melanoma, in the assay with MDA-MB-435, with NCI-H226 lung, in the assay with NCI-H23 lung and in the assay on SF-295 CNS was above 100 µM each time. Besides, the TGI with SK-MEL-5 melanoma and in the assay on SNB-19 CNS was above 100 µM in each case.

Consider `CCOc1ccc(N/C(=C(/C(Cl)=C(/Cl)N2CCCCC2)[N+](=O)[O-])n2nnc3ccccc32)cc1`, for which the TGI in the assay with KM12 colon was 31.6 µM; in the assay on MDA-MB-435 it was 32.3 µM; in the assay with NCI-H226 lung, 58.7 µM; with NCI-H23 lung, 29.7 µM; in the assay on NCI-H460 lung, 70.4 µM; in the assay with SF-295 CNS it was 49 µM. Also, the results for the TGI in the assay on SK-MEL-5 melanoma, with SNB-19 CNS and in the assay on TK-10 renal were 29.9 µM, 44 µM and above 100 µM, respectively.

Take `CC(C)NC(=O)N(Nc1ccccc1)C(C)(C)C`: the TGI with KM12 colon, with LOX IMVI melanoma, in the assay with NCI-H226 lung, in the assay with NCI-H23 lung, with NCI-H460 lung and in the assay with SF-295 CNS was above 100 µM each time. Further, the TGI in the assay on SK-MEL-5 melanoma, in the assay on SNB-19 CNS and in the assay on TK-10 renal was above 100 µM throughout.

Consider `COC1CN(C)C(=Nc2cccc3ccccc23)S1` (stereo not drawn), for which the TGI in the assay with KM12 colon, in the assay on LOX IMVI melanoma, in the assay with MDA-MB-435, in the assay with NCI-H23 lung, in the assay with SF-295 CNS and with SK-MEL-5 melanoma was above 10 µM in each case. The TGI in the assay on SNB-19 CNS and in the assay with TK-10 renal was above 10 µM each time.

In the case of `COc1cc(-c2cc(=O)c3c(O)c(CC=C(C)C)c(O)cc3o2)ccc1O`, the TGI in the assay with LOX IMVI melanoma was above 50 µM; in the assay with MDA-MB-435, 22 µM; in the assay on NCI-H226 lung, above 50 µM; with NCI-H23 lung, above 50 µM; with NCI-H460 lung it was above 50 µM; in the assay with SF-295 CNS, 31.2 µM. The TGI in the assay with SK-MEL-5 melanoma, with SNB-19 CNS and in the assay on TK-10 renal was above 50 µM in each case.

Take `COc1ccc(/C=C2\CCS(=O)(=O)c3ccccc3C2=O)cc1`: the TGI in the assay on KM12 colon was determined as 31 µM; in the assay on LOX IMVI melanoma, 40.4 µM; in the assay on MDA-MB-435, 89.8 µM; in the assay with NCI-H226 lung, 62.8 µM; with NCI-H23 lung, 47.6 µM; in the assay on NCI-H460 lung it was 57 µM. Besides, the TGI is 98.9 µM with SF-295 CNS, 70.6 µM in the assay with SNB-19 CNS and 61.6 µM with TK-10 renal.

`Cc1c(N2CCN(C)CC2)nc2ccc(Cl)cc2c1-c1ccccc1`: the TGI came to 28.5 µM in the assay on KM12 colon; 28.3 µM in the assay with LOX IMVI melanoma; 55.4 µM in the assay on NCI-H23 lung; 33.4 µM in the assay on NCI-H460 lung; 31.2 µM in the assay on SF-295 CNS; 28.8 µM in the assay on SK-MEL-5 melanoma. Also, the figures for the TGI in the assay with SNB-19 CNS and with TK-10 renal were 66.2 µM and above 10 µM, respectively.

With `CN(/N=C/c1cccc2cccnc12)c1ccc(Cl)cc1[N+](=O)[O-]`, the TGI with KM12 colon, with MDA-MB-435, with NCI-H226 lung, in the assay on NCI-H23 lung, in the assay with NCI-H460 lung and with SF-295 CNS was above 100 µM in each case. In addition, the TGI in the assay on SK-MEL-5 melanoma, in the assay on SNB-19 CNS and in the assay on TK-10 renal was above 100 µM throughout.

Take `CC(=O)Nc1c(C)cc2c(nc3n2CCC3OC(C)=O)c1[N+](=O)[O-]` (stereo not drawn): the TGI with KM12 colon, in the assay with LOX IMVI melanoma, in the assay with MDA-MB-435, in the assay on NCI-H226 lung, with NCI-H23 lung and in the assay on NCI-H460 lung was above 100 µM in each case. In addition, the TGI with SF-295 CNS, in the assay on SK-MEL-5 melanoma and in the assay with SNB-19 CNS was above 100 µM in each case.

As to `COC1C(O)C(n2ncc3c(SC)nc(SC)nc32)OC1C(O)CO` (stereo not drawn), the TGI in the assay with KM12 colon, with LOX IMVI melanoma, in the assay with NCI-H226 lung, in the assay on NCI-H23 lung, in the assay on NCI-H460 lung and in the assay on SF-295 CNS was above 100 µM throughout. Moreover, the TGI in the assay with SK-MEL-5 melanoma and with SNB-19 CNS was above 100 µM in each case.

Take `CC(=O)Nc1ccc2c3c(cc(O)c2c1)N(C(=O)CCCCCCC(=O)N1CC(CCl)c2c1cc(O)c1cc(NC(C)=O)ccc21)CC3CCl` (stereo not drawn): the TGI is 12.7 µM in the assay with KM12 colon; 0.361 µM in the assay with LOX IMVI melanoma; 0.0604 µM with MDA-MB-435; 0.0228 µM with NCI-H23 lung; 3.19 µM with SF-295 CNS; below 0.0109 µM in the assay with SK-MEL-5 melanoma. Further, the TGI was determined as 0.913 µM in the assay with SNB-19 CNS and 0.0702 µM with TK-10 renal.

The values above are taken from PubChem BioAssay (NCI).
